The results in this text go back to patent publication US20130216553A1, “Compositions and Methods for Modulation and Detection of Immune and Inflammatory Responses” (priority 2010, published 2013).

* marks the point of attachment. Palmitoyl = CCCCCCCCCCCCCCCC(=O)*

Assay [1] concerns Bone marrow-derived DCs from TLR2^−/− mice. The assay can be described thus: Stimulation of bone marrow dendritic cells from TLR2^−/− mice (IL-6 ELISA, surface activation markers). Type of assay: cell-based, mouse. Particulars: TLR2^−/− BMDCs, plate-bound LPS (1 μg), MMP (10 μg) or PE DHC (2.5 μg), supernatants after 18 hrs. Here is the method: (§1) Bone marrow cells from C57BL/6 and TLR2^−/− mice were cultured at 2×10^5 cells/ml in RPMI containing 10% FCS, 2-ME, and 20 ng/ml recombinant murine GM-CSF for 9 days. Bone marrow DCs (BMDCs) were harvested at Day 9 and were greater than 80% CD11c+. LPS (1 μg), MMP (10 μg) (a bacterial lipoprotein and known TLR-2 ligand: Palmitoyl-Cys ((RS)-2,3-di(palmitoyloxy)-propyl)-Ser-Ser-Asn-Ala-OH(pam3-Cys-Ser-Ser Asn-Ala-OH) (Bachem H-9460), PE DHC (2.5 μg) or 70% EtOH, all in 20 ul volumes, were allowed to dry in the wells of a 24-well plate overnight prior to the addition of BMDCs. BMDCs were cultured in the ligand-bound 24-well plates at 1×10^6 cells/ml in RPMI containing GM-CSF. After 18 hrs, culture supernatants were harvested and tested for IL-6 via ELISA.
(§2) The effects of PE DHC on antigen presenting cell (APC) activation in vitro were examined. Dendritic cells (BMDCs) (>85% CD11c+) were derived from the bone marrow of WT or TLR2^−/− mice and cultured either alone or with EtOH, LPS, MMP (a TLR2 ligand), or PE DHC. After 18 Ins supernatants were assayed for IL-6. […] BMDCs were also assayed for expression of the surface activation markers B7.2 and MHC class II.
For orientation: ELISA stands for enzyme-linked immunosorbent assay.

The subject of assay [2] is Bone marrow-derived DCs from wild-type (WT) mice. In words: Stimulation of bone marrow dendritic cells from wild-type mice (IL-6 ELISA, surface activation markers). Type of assay: cell-based, mouse. The conditions noted are these: WT BMDCs, plate-bound LPS (1 μg), MMP (10 μg) or PE DHC (2.5 μg), supernatants after 18 hrs. Here is the method: as §1, §2

As for “Palmitoyl-Cys ((RS)-2,3-di(palmitoyloxy)-propyl)-Ser-Ser-Asn-Ala-OH ({Palmitoyl-Cys((RS)-2,3-di(palmitoyloxy)-propyl)}-SSNA-OH) [MMP, a bacterial lipoprotein and known TLR-2 ligand (Bachem H-9460)]”, the IL-6 secretion entry in assay [1] is “did not”; in assay [2], “resulted in IL-6 secretion”.
